The values that follow come from US9914730B2, “Azaquinazoline inhibitors of Atypical protein Kinase C” (Ignyta, Inc., priority 2012, dated 2018).

This assay addresses T1, full-length human PKCι (Homo sapiens, UniProt P41743).
T1 construct: Recombinant, full-length human PKCι expressed in Sf21 insect cells is also commercially available; purchased; host or cells: Sf21 insect cells
T1 sequence (P41743 1-596): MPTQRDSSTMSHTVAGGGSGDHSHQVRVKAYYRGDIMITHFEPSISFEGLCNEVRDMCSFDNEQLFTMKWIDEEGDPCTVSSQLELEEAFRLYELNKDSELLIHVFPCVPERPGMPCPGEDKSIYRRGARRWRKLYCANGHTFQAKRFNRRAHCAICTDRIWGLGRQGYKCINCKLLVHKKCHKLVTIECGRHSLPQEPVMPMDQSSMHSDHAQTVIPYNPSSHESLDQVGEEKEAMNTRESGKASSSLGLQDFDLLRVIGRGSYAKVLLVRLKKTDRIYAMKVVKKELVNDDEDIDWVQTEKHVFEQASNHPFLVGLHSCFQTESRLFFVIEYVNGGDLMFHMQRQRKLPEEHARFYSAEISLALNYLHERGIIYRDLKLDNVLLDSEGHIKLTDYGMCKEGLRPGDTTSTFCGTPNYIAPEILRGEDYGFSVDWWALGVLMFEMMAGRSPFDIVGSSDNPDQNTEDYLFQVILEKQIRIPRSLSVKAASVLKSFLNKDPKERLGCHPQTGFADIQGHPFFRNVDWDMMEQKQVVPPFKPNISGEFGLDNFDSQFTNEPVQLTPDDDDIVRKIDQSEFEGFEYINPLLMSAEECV
In words: PKCι IC50 IMAP assay, full-length PKCι at 150 μM ATP. The format is biochemical. To be noted: read-out: IC50 in IMAP assay against full length PKCi at 150 μM ATP. The method, boiled down: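 Recombinant full-length human PKCι (Sf21-expressed, typically 15 pM) phosphorylated 100 nM 5FAM-labelled PKCε pseudosubstrate-derived peptide with 150 μM ATP (5× KM^APP) in 18 mM tris-HCl pH7.5, 9 mM MgCl2, EGTA, DTT, 4% DMSO. After 60 min at room temperature, IMAP binding reagent was added for 2 h and fluorescence polarisation read.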

Structures are written as SMILES.

By IC50 is commonly meant the midpoint of a concentration-inhibition curve. For the compound `CNCCNC(=O)C1CCN(c2nc(-c3ccnc(Nc4c(F)cccc4F)c3)nc3cncc(C4CC4)c23)CC1` [Example 744, 1-{5-Cyclopropyl-2-[2-(2,6-difluoro-phenylamino)-pyridin-4-yl]-pyrido[3,4-d]pyrimidin-4-yl}-piperidine-4-carboxylic acid (2-methylamino-ethyl)-amide], the IC50 is less than 100 nM.

In the case of `Fc1ccc(Nc2cc(-c3nc(N4CCCNCC4)c4c(C5CC5)cncc4n3)ccn2)cc1` [Example 699, [4-(5-Cyclopropyl-4-[1,4]diazepan-1-yl-pyrido[3,4-d]pyrimidin-2-yl)-pyridin-2-yl]-(4-fluoro-phenyl)-amine], the IC50 was less than 100 nM.

Turning to `COc1cncc2nc(-c3ccnc(NC(=O)Cc4cccc(C#N)c4)c3)nc(N3CCOCC3)c12` [Example 389, 2-(3-Cyano-phenyl)-N-[4-(5-methoxy-4-morpholin-4-yl-pyrido[3,4-d]pyrimidin-2-yl)-pyridin-2-yl]-acetamide], the IC50 lay within 100 to 1000 nM.

For the compound `CC1(Nc2nc(-c3ccnc(Nc4ncc(F)cc4F)c3)nc3cncc(C4CC4)c23)CCNCC1` [Example 2174, {5-Cyclopropyl-2-[2-(3,5-difluoro-pyridin-2-ylamino)-pyridin-4-yl]-pyrido[3,4-d]pyrimidin-4-yl}-(4-methyl-piperidin-4-yl)-amine], the IC50 was less than 100 nM.

Consider `CC1(C)CN(c2nc(-c3ccnc(Nc4ccc(F)cc4)c3)nc3cncc(C4CC4)c23)CCN1` [Example 719], for which the IC50 was less than 100 nM.

Consider `N[C@H](CNc1nc(-c2ccncc2)nc2c(-c3ccco3)nccc12)Cc1ccccc1` [Example 115, N-[(2S)-2-amino-3-phenylpropyl]-8-(furan-2-yl)-2-(pyridin-4-yl)pyrido[3,4-d]pyrimidin-4-amine], for which the IC50 is less than 100 nM.

As for `c1cc(-c2nc(N3CCNCC3)c3c(C4CC4)cncc3n2)c2cc(C3CCOCC3)[nH]c2n1` [Example 2111, 5-Cyclopropyl-4-piperazin-1-yl-2-[2-(tetrahydro-pyran-4-yl)-1H-pyrrolo[2,3-b]pyridin-4-yl]-pyrido[3,4-d]pyrimidine], the IC50 is less than 100 nM.

As to `CC(=O)NC1CCN(c2nc(-c3ccnc(Nc4c(F)cccc4F)c3)nc3cncc(C4CC4)c23)CC1` [Example 657, N-(1-{5-Cyclopropyl-2-[2-(2,6-difluoro-phenylamino)-pyridin-4-yl]-pyrido[3,4-d]pyrimidin-4-yl}-piperidin-4-yl)-acetamide], the IC50 lay in the range of 100 to 1000 nM.

As to `NC(=O)c1cc(F)c(Nc2cc(-c3nc(N4CCNCC4)c4c(C5CC5)cncc4n3)ccn2)c(F)c1` [Example 822, 4-[4-(5-Cyclopropyl-4-piperazin-1-yl-pyrido[3,4-d]pyrimidin-2-yl)-pyridin-2-ylamino]-3,5-difluoro-benzamide], the IC50 was in the range of 1000 to 10000 nM.

For the compound `OC1CN(c2nc(-c3ccnc(Nc4cccc(N5CCNCC5)c4)c3)nc3cncc(C4CC4)c23)C1` [Example 778, 1-{5-Cyclopropyl-2-[2-(3-piperazin-1-yl-phenylamino)-pyridin-4-yl]-pyrido[3,4-d]pyrimidin-4-yl}-azetidin-3-ol], the IC50 was less than 100 nM.

As for `COc1cncc2nc(-c3ccncc3)nc(N3CCC(N)(C(=O)N[C@@H](CCO)c4ccc(Cl)cc4)CC3)c12` [Example 154, 4-Amino-1-(5-methoxy-2-pyridin-4-yl-pyrido[3,4-d]pyrimidin-4-yl)-piperidine-4-carboxylic acid [(S)-1-(4-chloro-phenyl)-3-hydroxy-propyl]-amide], the IC50 lay in the range of 100 to 1000 nM.

Take `COc1cncc2nc(-c3ccnc(NC(=O)Cc4cccc(C#N)c4)c3)nc(N3CCC(O)CC3)c12` [Example 403, 2-(3-Cyano-phenyl)-N-{4-[4-(4-hydroxy-piperidin-1-yl)-5-methoxy-pyrido[3,4-d]pyrimidin-2-yl]-pyridin-2-yl}-acetamide]: the IC50 is 100 to 1000 nM.

Consider `O[C@H]1CCN(c2nc(-c3ccncc3)nc3cnccc23)C1` [Example 35, (3S)-1-[2-(pyridin-4-yl)pyrido[3,4-d]-pyrimidin-4-yl]-pyrrolidin-3-ol], for which the IC50 fell in the range of 10000 to 40000 nM.

`COc1cncc2nc(-c3ccnc(Nc4ccccc4)c3)nc(N3CCN[C@@H](C4CC4)C3)c12` [Example 236]: the IC50 lay in the range of 100 to 1000 nM.

`c1cc2c(N[C@@H]3CCNC3)nc(N3CCOCC3)nc2cn1` [Example 1011, (2-Morpholin-4-yl-pyrido[3,4-d]pyrimidin-4-yl)-(R)-pyrrolidin-3-yl-amine]: the IC50 is 1000 to 10000 nM.

In the case of `CC(=O)N[C@H](CNc1nc(-c2ccncc2)nc2cnccc12)Cc1ccccc1` [Example 79, N—[(S)-1-Benzyl-2-(2-pyridin-4-yl-pyrido[3,4-d]pyrimidin-4-ylamino)-ethyl]-acetamide], the IC50 lay within 10000 to 40000 nM.

Turning to `COc1ccc(F)c(Nc2cc(-c3nc(N4CCNCC4)c4c(C5CC5)cncc4n3)ccn2)c1` [Example 580, [4-(5-Cyclopropyl-4-piperazin-1-yl-pyrido[3,4-d]pyrimidin-2-yl)-pyridin-2-yl]-(2-fluoro-5-methoxy-phenyl)-amine], the IC50 is less than 100 nM.

Take `COc1cncc2nc(-c3ccnc(Nc4ccccc4)c3)nc(NC[C@@H]3CCCN3)c12` [Example 430, [5-Methoxy-2-(2-phenylamino-pyridin-4-yl)-pyrido[3,4-d]pyrimidin-4-yl]-(S)-1-pyrrolidin-2-ylmethyl-amine]: the IC50 lay in the range of 100 to 1000 nM.

For `O=C(C1CCN(c2nc(-c3ccnc(Nc4c(F)cccc4F)c3)nc3cncc(C4CC4)c23)CC1)N1CCNCC1` [Example 741, (1-{5-Cyclopropyl-2-[2-(2,6-difluoro-phenylamino)-pyridin-4-yl]-pyrido[3,4-d]pyrimidin-4-yl}-piperidin-4-yl)-piperazin-1-yl-methanone], the IC50 fell in the range of 100 to 1000 nM.

Turning to `N[C@H](CNc1nc(-c2ccncc2)nc2c(-c3cccc4ccoc34)nccc12)Cc1ccccc1` [Example 110, N-[(2S)-2-amino-3-phenylpropyl]-8-(1-benzofuran-7-yl)-2-(pyridin-4-yl)pyrido[3,4-d]pyrimidin-4-amine], the IC50 fell in the range of 100 to 1000 nM.

With `Fc1ccc(Cl)c(F)c1Nc1cc(-c2nc(N3CCNCC3)c3c(C4CC4)cncc3n2)ccn1` [Example 618, (3-Chloro-2,6-difluoro-phenyl)-[4-(5-cyclopropyl-4-piperazin-1-yl-pyrido[3,4-d]pyrimidin-2-yl)-pyridin-2-yl]-amine], the IC50 was less than 100 nM.

Take `COc1cncc2nc(-c3ccnc(Nc4ccc(N5CCOCC5)nc4)c3)nc(N3CCNCC3)c12` [Example 375, [4-(5-Methoxy-4-piperazin-1-yl-pyrido[3,4-d]pyrimidin-2-yl)-pyridin-2-yl]-(6-morpholin-4-yl-pyridin-3-yl)-amine]: the IC50 was less than 100 nM.

Regarding `NC(=O)COc1cccc(Nc2cc(-c3nc(N[C@@H]4CCNC4)c4ccncc4n3)ccn2)c1` [Example 311, 2-(3-{4-[4-((R)-Pyrrolidin-3-ylamino)-pyrido[3,4-d]pyrimidin-2-yl]-pyridin-2-ylamino}-phenoxy)-acetamide], the IC50 was less than 100 nM.

Turning to `Fc1cnccc1-c1nc(N[C@@H]2CCNC2)c2ccncc2n1` [Example 8, (3R)-N-[2-(3-fluoropyridin-4-yl)-pyrido[3,4-d]-pyrimidin-4-yl]-pyrrolidin-3-amine], the IC50 is 100 to 1000 nM.

Take `Cc1ccc(Nc2cc(-c3nc(N4CCNCC4)c4c(C5CC5)cncc4n3)ccn2)c(Cl)c1` [Example 572, (2-Chloro-4-methyl-phenyl)-[4-(5-cyclopropyl-4-piperazin-1-yl-pyrido[3,4-d]pyrimidin-2-yl)-pyridin-2-yl]-amine]: the IC50 is less than 100 nM.

On to `Cc1ncccc1Nc1cc(-c2nc(N3CCNCC3)c3c(C4CC4)cncc3n2)ccn1` [Example 544, [4-(5-Cyclopropyl-4-piperazin-1-yl-pyrido[3,4-d]pyrimidin-2-yl)-pyridin-2-yl]-(2-methyl-pyridin-3-yl)-amine], for which the IC50 is less than 100 nM.

`c1cc(-c2nc(N3CCNCC3)c3c(C4CC4)cncc3n2)cc(N[C@@H]2C[C@H]3CC[C@@H]2C3)n1` [Example 824, (1R,2R,4S)-Bicyclo[2.2.1]hept-2-yl-[4-(5-cyclopropyl-4-piperazin-1-yl-pyrido[3,4-d]pyrimidin-2-yl)-pyridin-2-yl]-amine]: the IC50 is less than 100 nM.

Consider `COc1cncc2nc(-c3ccnc(Nc4ccccc4)c3)nc(N3CCC(F)(F)CC3)c12` [Example 460, {4-[4-(4,4-Difluoro-piperidin-1-yl)-5-methoxy-pyrido[3,4-d]pyrimidin-2-yl]-pyridin-2-yl}-phenyl-amine], for which the IC50 lay within 10000 to 40000 nM.

On to `Cc1cccc(Cl)c1Nc1cc(-c2nc(N3CCNCC3)c3c(C4CC4)cncc3n2)ccn1` [Example 527, (2-Chloro-6-methyl-phenyl)-[4-(5-cyclopropyl-4-piperazin-1-yl-pyrido[3,4-d]pyrimidin-2-yl)-pyridin-2-yl]-amine], for which the IC50 is less than 100 nM.

With `COc1cncc2nc(-c3ccnc4[nH]c(Cc5ccccc5)cc34)nc(N3CCNCC3)c12` [Example 1202, 2-(2-Benzyl-1H-pyrrolo[2,3-b]pyridin-4-yl)-5-methoxy-4-piperazin-1-yl-pyrido[3,4-d]pyrimidine], the IC50 is less than 100 nM.
